Data as given in EP1037627B1, “USE OF 11-(3-DIMETHYLAMINOPROPYLIDENE)-6,11-DIHYDRODIBENZ[B,E]OXEPIN-2-ACETIC ACID AND OF PHARMACEUTICALLY ACCEPTABLE SALTS THEREOF FOR THE MANUFACTURE OF A MEDICAMENT FOR THE TREATMENT OF NON-[…] OPHTHALMIC INFLAMMATORY DISORDERS AND FOR THE PREVENTION OF OCULAR NEOVASCULARIZATION” (Alcon Laboratories, Inc., priority 1998, dated 2000).
Several values for one entry are separate records, joined by “and”; a condition that tells them apart may be missing. Equal entries are not always repeated. Structures can show the parent of a compound that is named as a salt. Where two headings read alike, the source gives them in different places.

Assays:
[1] = test system: IL-6 Secretion in Human Conjunctival Epithelial Cells; assay: Inhibition of histamine-stimulated IL-6 secretion in cultured human conjunctival epithelial cells (ELISA); format: cell-based; settings: for IC50: Homo sapiens, read-out: IL-6 IC50
From the text: (§1) Methods detailing the preparation of primary epithelial cell cultures and cytokine release studies using these cells have been described. See […], et al., "Secretion of proinflammatory cytokines by human conjunctival epithelial cells," Ocul Immunol Inflamm., 5:117-128 (1997). Briefly, cultures of human conjunctival epithelial cells were initiated from donor tissues obtained within eight hours post mortem by various eye banks. The tissues were enzymatically digested overnight. Epithelial cells were gently scraped from the tissue surface, dissociated into a single cell suspension, and cultured in keratinocyte growth medium (Clonetics® , San Diego, CA). Cells were used only through passage 6. Cultures were maintained in a preconfluent state to prevent differentiation. Cells were identified as epithelial by positive keratin staining. […] Cells were plated at 2x10^4 cells/well and cultured overnight at 5% CO2/37°C. The following day, fresh medium containing test compound was added directly to wells and the cells were incubated for 30 minutes prior to 24-hour stimulation with histamine (30 μM). Three separate culture wells were used for each treatment group. At harvest, supernatants were collected, centrifuged at 200 x g, and stored at -20°C. Samples were analyzed for IL-6 and IL-8 by ELISA (R&D Systems, Minneapolis, MN) as directed by the manufacturer. The sensitivities of each ELISA are as follows: […] The antagonist potency (IC50) was defined as the concentration of the drug required to produce 50% inhibition of the agonist-stimulated functional response. Data derived from the cytokine assays were calculated as mean and standard error (SEM) values which represent the variability among identically treated culture wells. The dose-dependent effect of pharmacological agents and IC50's were determined by linear regression. Data are expressed as mean ± S.E.M. from 3 - 5 independent experiments.

[2] = test system: IL-8 Secretion in Human Conjunctival Epithelial Cells; assay: Inhibition of histamine-stimulated IL-8 secretion in cultured human conjunctival epithelial cells (ELISA); format: cell-based; settings: for IC50: Homo sapiens, read-out: IL-8 IC50
From the text: as §1

histamine H1-receptor = settings: published values (Sharif et al. 1994; Yanni et al. 1997), read-out: H1 Binding Ki, cited from earlier work
[3] = HCE cells, 30 minutes preincubation with test compound, then 24-hour stimulation with histamine (30 µM), ELISA
[4] = HCE exposed to 30 µM of histamine
[5] = IL-6 and IL-8 secretion IC50 compared with H1 binding affinity

In the case of `C[C@@H]1CN([C@H]2CC[C@](C#N)(c3ccc(F)cc3)CC2)CC[C@]1(C(=O)O)c1ccccc1` [Levocabastine, (-)-traps-1-[cis-4-Cyano-4-(p-fluorophenyl)cyclohexyl]-3-methyl-4-phenylisonipecotic acid monohydrochloride], the IC50 [1, 3] is given as 25.1 nM, the IC50 [2, 3] is given as 11.9 nM and the Ki (histamine H1-receptor) is given as 52.6 nM.

With `NCCc1c[nH]cn1` [histamine] the “increased IL-6 secretion” value [1, 4] was 1.59 ± 0.19 fold above basal levels and the “increased IL-8 secretion” value [2, 4] was 1.80 ± 0.28 fold above basal levels.

For `CN(C)CC/C=C1/c2ccccc2COc2ccc(CC(=O)O)cc21` [Olopatadine, Z-11-(3-Dimethylaminopropylidene)-6,11-dihydrodibenz[b,e]oxepin-2-acetic acid], the IC50 ([1]; HCE) was 5.5 nM, the “more potent as an inhibitor of cytokine secretion than predicted from binding data” value [1, 5] was “approximately 10 fold” and the IC50 ([2]; HCE) was 1.7 nM. The Ki (histamine H1-receptor) was 36 nM and 32 to 39 nM.

In the case of `c1ccc(CN(CC2=NCCN2)c2ccccc2)cc1` [Antazoline, 4,5-Dihydro-N-phenyl-N-(phenylmethyl)-1 H-imidazole-2-methanamine], the IC50 [1, 3] is reported as 1010 nM, the “less potent inhibitors of IL-6 and IL-8 secretion than predicted from their histamine H1-receptor binding affinities” value [1, 5] is reported as 20 - 140 fold and the IC50 [2, 3] is reported as 652 nM. For the same molecule, the Ki (histamine H1-receptor; listed as antazoline) was 32 to 39 nM and the Ki (histamine H1-receptor) was 38.4 nM.

For `CN(C)CCC(c1ccccc1)c1ccccn1` (stereo not shown) [Pheniramine, N,N-Dimethyl-γ-phenyl-2-pyridine-propanamine], the IC50 [1, 3] was 4830 nM, the “less potent inhibitors of IL-6 and IL-8 secretion than predicted from their histamine H1-receptor binding affinities” value [1, 5] was 20 - 140 fold and the IC50 [2, 3] was 1220 nM. For the same molecule, the Ki (histamine H1-receptor; listed as pheniramine) was 32 to 39 nM and the Ki (histamine H1-receptor) was 33.9 nM.

In the case of `CCOCCn1c(N2CCCN(C)CC2)nc2ccccc21` [Emedastine, 1H-Benzimidazole,1-(2-ethoxyethyl)-2-(hexahydro-4-methyl-1H-1,4-diazepin-1-yl),(E)-2-butenedioate (1:2)], the IC50 [1, 3] is given as 2.5 nM, the IC50 [2, 3] is given as 4 nM and the Ki (histamine H1-receptor) is given as 1.22 nM.
